Values belong to the compound of their own block, whether it stands above or below them.
Assays:
[1] = biological target: Dual specificity protein kinase CLK3 (Homo sapiens, UniProt P49761)
Description: Inhibition of CLK3 (unknown origin) incubated for 10 mins in presence of ATP

[2] = biological target: Receptor-type tyrosine-protein kinase FLT3 (Homo sapiens) (UniProt P36888); conditions: dose 100.0 nM
Description: Inhibition of FLT3 (unknown origin) at 100 nM relative to control

[3] = biological target: T1, Serine/arginine-rich splicing factor 6 (Rattus norvegicus) (UniProt G3V6S8); conditions: Chondrocyte, dose 10-100 nM, time 1.0 hrs
T1 sequence (whole entry): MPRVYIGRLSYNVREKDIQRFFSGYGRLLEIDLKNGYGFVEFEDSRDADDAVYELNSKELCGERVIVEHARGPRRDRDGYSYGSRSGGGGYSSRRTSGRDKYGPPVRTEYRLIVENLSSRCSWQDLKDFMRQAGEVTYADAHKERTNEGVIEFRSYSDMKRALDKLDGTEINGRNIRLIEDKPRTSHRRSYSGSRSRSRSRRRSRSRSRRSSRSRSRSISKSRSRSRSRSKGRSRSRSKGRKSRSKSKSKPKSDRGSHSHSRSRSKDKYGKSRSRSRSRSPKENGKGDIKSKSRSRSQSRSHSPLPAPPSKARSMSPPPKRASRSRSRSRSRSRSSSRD

[4] = biological target: T2, Dual specificity protein kinase CLK4 (Homo sapiens, UniProt Q9HAZ1)
Target sequence in this assay (Q9HAZ1 whole entry): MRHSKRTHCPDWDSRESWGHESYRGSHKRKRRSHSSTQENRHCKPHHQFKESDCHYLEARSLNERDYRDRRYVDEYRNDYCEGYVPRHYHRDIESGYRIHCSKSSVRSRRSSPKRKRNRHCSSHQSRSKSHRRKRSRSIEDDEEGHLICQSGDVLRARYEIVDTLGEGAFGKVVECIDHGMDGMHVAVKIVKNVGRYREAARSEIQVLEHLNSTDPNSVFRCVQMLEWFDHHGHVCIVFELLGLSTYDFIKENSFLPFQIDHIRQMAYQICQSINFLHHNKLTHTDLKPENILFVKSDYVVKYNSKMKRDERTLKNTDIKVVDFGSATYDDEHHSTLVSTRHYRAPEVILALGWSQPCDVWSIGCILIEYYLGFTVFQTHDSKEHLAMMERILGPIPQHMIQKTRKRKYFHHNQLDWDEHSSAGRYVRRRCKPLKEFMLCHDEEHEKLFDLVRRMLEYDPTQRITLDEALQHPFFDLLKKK
Description: Inhibition of CLK4 (unknown origin) incubated for 10 mins in presence of ATP

[5] = biological target: T3, Dual specificity tyrosine-phosphorylation-regulated kinase 1A (Homo sapiens, UniProt Q13627)
Description: Inhibition of DYRK1A (unknown origin) incubated for 10 mins in presence of ATP

[6] = biological target: Serine/threonine-protein kinase pim-3 (Homo sapiens) (UniProt Q86V86); conditions: dose 100.0 nM
Description: Inhibition of PIM3 (unknown origin) at 100 nM relative to control

[7] = biological target: T3, Dual specificity tyrosine-phosphorylation-regulated kinase 1A; conditions: dose 100.0 nM
Description: Inhibition of DYRKIA (unknown origin) at 100 nM relative to control

[8] = biological target: T2, Dual specificity protein kinase CLK4; conditions: dose 100.0 nM
Target sequence in this assay (Q9HAZ1 whole entry, looked up): as the sequence (Q9HAZ1 whole entry) above
Description: Inhibition of CLK4 (unknown origin) at 100 nM relative to control

[9] = biological target: Homeodomain-interacting protein kinase 2 (Homo sapiens) (UniProt Q9H2X6); conditions: dose 100.0 nM
Description: Inhibition of HIPK2 (unknown origin) at 100 nM relative to control

[10] = biological target: TRAF2 and NCK-interacting protein kinase (Homo sapiens) (UniProt Q9UKE5); conditions: dose 100.0 nM
TRAF2 and NCK-interacting protein kinase (Homo sapiens), sequence (Q9UKE5 whole entry, looked up): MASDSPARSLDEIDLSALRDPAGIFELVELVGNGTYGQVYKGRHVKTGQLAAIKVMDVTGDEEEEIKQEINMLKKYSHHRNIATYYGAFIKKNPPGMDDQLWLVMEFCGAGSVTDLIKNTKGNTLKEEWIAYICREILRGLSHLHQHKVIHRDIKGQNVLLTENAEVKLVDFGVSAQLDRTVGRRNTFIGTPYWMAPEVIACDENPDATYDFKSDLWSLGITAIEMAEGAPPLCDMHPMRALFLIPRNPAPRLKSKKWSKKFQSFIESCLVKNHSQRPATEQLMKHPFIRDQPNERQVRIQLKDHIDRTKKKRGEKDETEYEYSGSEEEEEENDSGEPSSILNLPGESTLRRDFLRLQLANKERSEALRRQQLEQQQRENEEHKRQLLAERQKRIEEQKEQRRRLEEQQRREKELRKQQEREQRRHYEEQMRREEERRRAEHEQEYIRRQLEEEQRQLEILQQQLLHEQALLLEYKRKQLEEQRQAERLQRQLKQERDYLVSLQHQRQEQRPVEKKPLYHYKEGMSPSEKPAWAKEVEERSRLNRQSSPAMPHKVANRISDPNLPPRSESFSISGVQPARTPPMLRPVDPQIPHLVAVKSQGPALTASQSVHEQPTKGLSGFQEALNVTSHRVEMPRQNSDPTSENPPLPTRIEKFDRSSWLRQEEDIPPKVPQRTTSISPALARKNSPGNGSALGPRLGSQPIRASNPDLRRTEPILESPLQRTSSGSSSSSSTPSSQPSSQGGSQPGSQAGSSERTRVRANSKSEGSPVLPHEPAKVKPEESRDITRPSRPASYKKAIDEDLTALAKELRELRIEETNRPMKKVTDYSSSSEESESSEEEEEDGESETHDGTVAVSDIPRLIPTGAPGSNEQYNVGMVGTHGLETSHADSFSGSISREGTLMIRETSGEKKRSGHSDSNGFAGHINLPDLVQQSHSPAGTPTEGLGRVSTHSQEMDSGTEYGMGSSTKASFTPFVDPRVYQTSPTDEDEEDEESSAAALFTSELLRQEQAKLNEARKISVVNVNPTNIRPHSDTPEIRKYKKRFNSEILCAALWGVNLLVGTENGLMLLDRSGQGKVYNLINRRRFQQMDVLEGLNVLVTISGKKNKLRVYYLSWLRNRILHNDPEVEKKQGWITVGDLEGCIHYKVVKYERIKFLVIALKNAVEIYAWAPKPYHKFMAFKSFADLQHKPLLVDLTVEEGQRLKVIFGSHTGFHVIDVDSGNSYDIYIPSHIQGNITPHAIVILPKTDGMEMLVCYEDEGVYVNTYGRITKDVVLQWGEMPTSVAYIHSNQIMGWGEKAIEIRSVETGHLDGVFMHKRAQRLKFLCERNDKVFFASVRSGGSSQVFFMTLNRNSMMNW
Description: Inhibition of TNIK (unknown origin) at 100 nM relative to control

[11] = biological target: T4, Dual specificity protein kinase CLK1 (Homo sapiens, UniProt P49759); conditions: dose 100.0 nM
Target sequence in this assay (P49759 whole entry, looked up): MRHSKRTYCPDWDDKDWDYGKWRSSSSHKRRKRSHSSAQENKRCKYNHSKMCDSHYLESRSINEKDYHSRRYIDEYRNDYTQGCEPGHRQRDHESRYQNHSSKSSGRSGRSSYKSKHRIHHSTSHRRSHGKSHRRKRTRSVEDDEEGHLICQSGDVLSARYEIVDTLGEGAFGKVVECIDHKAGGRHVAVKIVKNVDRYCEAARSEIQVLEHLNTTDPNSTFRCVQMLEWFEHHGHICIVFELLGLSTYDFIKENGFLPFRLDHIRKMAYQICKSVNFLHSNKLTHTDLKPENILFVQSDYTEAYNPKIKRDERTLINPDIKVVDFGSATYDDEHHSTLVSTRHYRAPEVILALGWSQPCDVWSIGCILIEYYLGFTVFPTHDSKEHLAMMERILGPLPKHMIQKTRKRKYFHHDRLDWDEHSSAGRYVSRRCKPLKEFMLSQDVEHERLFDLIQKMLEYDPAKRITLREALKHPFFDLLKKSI
Description: Inhibition of CLK1 (unknown origin) at 100 nM relative to control

[12] = biological target: Dual specificity tyrosine-phosphorylation-regulated kinase 1B (Homo sapiens) (UniProt Q9Y463); conditions: dose 100.0 nM
Description: Inhibition of DYRK1B (unknown origin) at 100 nM relative to control

[13] = biological target: T4, Dual specificity protein kinase CLK1
Target sequence in this assay (P49759 whole entry): as the sequence (P49759 whole entry, looked up) above
Description: Inhibition of CLK1 (unknown origin) incubated for 10 mins in presence of ATP

[14] = biological target: Dual specificity protein kinase CLK2 (Homo sapiens, UniProt P49760)
Dual specificity protein kinase CLK2, sequence (P49760 whole entry): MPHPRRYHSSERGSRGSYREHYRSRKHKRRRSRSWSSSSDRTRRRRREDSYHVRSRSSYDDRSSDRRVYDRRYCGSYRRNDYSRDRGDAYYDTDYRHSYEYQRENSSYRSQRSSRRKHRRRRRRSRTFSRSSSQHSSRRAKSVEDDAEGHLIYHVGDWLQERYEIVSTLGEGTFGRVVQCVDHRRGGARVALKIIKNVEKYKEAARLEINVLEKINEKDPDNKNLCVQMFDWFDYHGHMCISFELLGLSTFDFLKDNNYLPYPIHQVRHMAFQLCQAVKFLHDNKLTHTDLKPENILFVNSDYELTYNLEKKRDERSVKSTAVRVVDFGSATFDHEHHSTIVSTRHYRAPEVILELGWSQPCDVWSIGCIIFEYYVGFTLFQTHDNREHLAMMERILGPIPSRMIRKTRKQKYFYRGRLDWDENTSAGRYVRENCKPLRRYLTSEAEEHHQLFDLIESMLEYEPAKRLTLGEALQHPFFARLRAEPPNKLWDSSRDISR
Description: Inhibition of CLK2 (unknown origin) incubated for 10 mins in presence of ATP

Dual specificity protein kinase CLK3, sequence (P49761 whole entry): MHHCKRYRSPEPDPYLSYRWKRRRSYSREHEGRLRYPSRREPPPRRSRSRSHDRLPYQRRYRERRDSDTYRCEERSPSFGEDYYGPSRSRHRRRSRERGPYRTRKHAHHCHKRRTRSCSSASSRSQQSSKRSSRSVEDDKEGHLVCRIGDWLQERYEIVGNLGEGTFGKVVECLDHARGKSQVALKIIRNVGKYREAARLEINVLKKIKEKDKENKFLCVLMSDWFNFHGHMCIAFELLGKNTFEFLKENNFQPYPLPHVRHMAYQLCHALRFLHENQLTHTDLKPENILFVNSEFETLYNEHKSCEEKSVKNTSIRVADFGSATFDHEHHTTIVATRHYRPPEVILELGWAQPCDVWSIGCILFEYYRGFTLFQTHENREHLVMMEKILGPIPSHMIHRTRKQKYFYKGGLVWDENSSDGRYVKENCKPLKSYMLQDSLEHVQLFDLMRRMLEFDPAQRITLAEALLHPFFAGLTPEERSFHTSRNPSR
Receptor-type tyrosine-protein kinase FLT3 (Homo sapiens), sequence (P36888 whole entry): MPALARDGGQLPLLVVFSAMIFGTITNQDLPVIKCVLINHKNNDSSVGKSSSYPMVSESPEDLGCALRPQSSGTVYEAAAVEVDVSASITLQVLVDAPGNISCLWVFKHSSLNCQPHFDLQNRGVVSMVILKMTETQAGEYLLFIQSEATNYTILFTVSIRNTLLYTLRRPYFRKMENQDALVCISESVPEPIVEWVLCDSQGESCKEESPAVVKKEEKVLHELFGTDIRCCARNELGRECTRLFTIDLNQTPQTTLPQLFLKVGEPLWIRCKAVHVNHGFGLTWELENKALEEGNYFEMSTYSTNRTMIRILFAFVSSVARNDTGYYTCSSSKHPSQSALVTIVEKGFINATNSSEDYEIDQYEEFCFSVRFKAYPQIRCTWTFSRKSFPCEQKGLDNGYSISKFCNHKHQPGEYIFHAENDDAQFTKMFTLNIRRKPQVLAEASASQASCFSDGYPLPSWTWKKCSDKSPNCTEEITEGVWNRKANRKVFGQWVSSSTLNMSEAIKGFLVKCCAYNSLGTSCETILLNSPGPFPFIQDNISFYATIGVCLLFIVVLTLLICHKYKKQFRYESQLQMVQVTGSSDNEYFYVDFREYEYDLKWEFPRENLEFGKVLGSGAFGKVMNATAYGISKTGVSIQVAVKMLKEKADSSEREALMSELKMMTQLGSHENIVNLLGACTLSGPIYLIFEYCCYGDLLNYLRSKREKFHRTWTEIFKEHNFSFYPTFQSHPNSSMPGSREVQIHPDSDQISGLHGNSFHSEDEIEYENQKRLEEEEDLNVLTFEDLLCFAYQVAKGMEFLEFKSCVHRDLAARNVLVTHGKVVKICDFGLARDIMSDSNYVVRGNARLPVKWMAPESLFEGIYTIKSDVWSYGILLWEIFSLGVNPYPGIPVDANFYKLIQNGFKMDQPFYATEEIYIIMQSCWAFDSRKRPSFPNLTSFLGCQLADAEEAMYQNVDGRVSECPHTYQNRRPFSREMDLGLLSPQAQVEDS

IC50 [1]: > 0.1 µM
SMILES: CC(C)C[C@H](N)COc1cncc(-c2ccc3[nH]nc(C#CC4CC4)c3c2)c1

IC50 [1]: > 0.1 µM
SMILES: CC(C)CC(=O)Nc1cncc(-c2ccc3[nH]nc(C#Cc4ccccc4Cl)c3c2)c1

inhibition [2]: 96%
IC50 [1]: > 0.1 µM
inhibition [3]: Dose-Dependent Effect
IC50 [4]: 0.0032 µM
IC50 [5]: 0.0217 µM
inhibition [6]: 92.4%
inhibition [7]: 93.2%
inhibition [8]: 94.4%
inhibition [9]: 93.1%
inhibition [10]: 94.1%
inhibition [11]: 97.2%
inhibition [12]: 94.7%
IC50 [13]: 0.021 µM
SMILES: CC(C)C[C@H](N)COc1cncc(-c2ccc3[nH]nc(C#Cc4ccsc4)c3c2)c1

IC50 [1]: > 0.1 µM
IC50 [5]: 0.0372 µM
IC50 [14]: 0.0123 µM
SMILES: Cc1[nH]nc2ccc(-c3cncc(OC[C@@H](N)CC(C)C)c3)cc12

IC50 [1]: > 0.1 µM
SMILES: CC(C)CC(=O)Nc1cncc(-c2ccc3[nH]nc(C#Cc4cccc(C(=O)O)c4)c3c2)c1

IC50 [1]: > 0.1 µM
SMILES: CC(C)CC(=O)Nc1cncc(-c2ccc3[nH]nc(C#Cc4ccncc4)c3c2)c1

IC50 [1]: > 0.1 µM
SMILES: CC(C)CC(=O)Nc1cncc(-c2ccc3[nH]nc(C#Cc4ccc5ccccc5n4)c3c2)c1

IC50 [1]: > 0.1 µM
SMILES: CC(C)CC(=O)Nc1cncc(-c2ccc3[nH]nc(C#CC4CC4)c3c2)c1

More lines, now with the values behind:

SMILES: CC(C)CC(=O)Nc1cncc(-c2ccc3[nH]nc(C#Cc4cccnc4)c3c2)c1
IC50 [1]: 0.0156 µM

SMILES: C(#Cc1n[nH]c2ccc(-c3cncc(OCC4CCCN4)c3)cc12)c1ccsc1 (stereo not given)
IC50 [1]: > 0.1 µM
IC50 [14]: 0.01 µM

SMILES: CC(C)CC(=O)Nc1cncc(-c2ccc3[nH]nc(C#Cc4ccc5cnccc5c4)c3c2)c1
IC50 [1]: > 0.1 µM

SMILES: CC(C)CC(=O)Nc1cncc(-c2ccc3[nH]nc(C#Cc4ccc(C=O)cc4)c3c2)c1
IC50 [1]: > 0.1 µM
IC50 [14]: 0.0102 µM

SMILES: CC(C)C[C@H](N)COc1cncc(-c2ccc3[nH]nc(C#Cc4cccc(F)c4)c3c2)c1
IC50 [1]: > 0.1 µM

SMILES: CC(C)CC(=O)Nc1cncc(-c2ccc3[nH]nc(C#Cc4ncccn4)c3c2)c1
IC50 [1]: > 0.1 µM

Reference: ChEMBL document CHEMBL5518234, “Structure-Guided Discovery of Potent and Selective CLK2 Inhibitors for the Treatment of Knee Osteoarthritis” (J Med Chem, 2024)
